Results taken from US20200317660A1, “Quinazolinone Compound and Application Thereof” (LUOXIN PHARMACEUTICAL (SHANGHAI) CO., LTD., priority 2017, published 2020).
pIC50: −log10 of the molar value.

Columns and labels:
[1] = tested on: human ovarian cancer SK-OV-3 cells; test: Subcutaneous xenograft tumor model of human ovarian cancer SK-OV-3 cells; type: in vivo, BALB/c nude mouse; conditions: SK-OV-3 xenograft, 30 mpk
Method: (2) BALB/c nude mouse subcutaneous xenograft tumor model of human ovarian cancer SK-OV-3 cells
Human ovarian cancer SK-OV-3 cells (ECACC-91091004) were subjected to in vitro monolayer culture, and the culture conditions were: McCoy's 5a medium (Gibco, 16600-082) with 10% fetal bovine serum and 100 U/mL penicillin and 100 µg/mL streptomycin, 37° C. and 5% CO2 incubator. The cells were passaged by digestion with trypsin-EDTA twice a week. When the cells saturation reached 80%-90%, the cells were collected, counted, and inoculated.
0.2 mL of 10×10^6 SK-OV-3 cells were subcutaneously inoculated into the right back of each nude mouse (PBS:Matrigel=1:1). When the average tumor volume reached 200 mm^3, 48 tumor-bearing mice were divided into 8 groups by stratified random method with 6 mice in each group, which were administered on the day of grouping.
Preparation of Test Substance
Vehicle group: 2.0 g of methyl cellulose was weighed in a 500 mL glass bottle, followed by addition of 399.2 mL of ddH2O and 0.8 mL of Tween 80. […]
The experimental index was to evaluate whether the tumor growth was inhibited, delayed or cured. The diameter of the tumor was measured with a vernier caliper twice a week. […]
The antitumor efficacy of the compound was evaluated by TGI (%) or relative tumor proliferation rate T/C (%). […]

[2] = tested on: phosphorylation of PI3K downstream protein Akt in MCF7 cells; test: In vitro test of cells activity: ELISA of Akt phosphorylation in MCF7 cells; type: cell-based; conditions: Homo sapiens, MCF7, 2 h, 2 h compound, insulin 10 μg/mL stimulation, pAkt ELISA, read-out: MCF7 Cell IC50
Method in brief: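 MCF7 cells were serum-starved overnight, exposed to 10-point three-fold compound dilutions for 2 h at 37°C, then stimulated with 10 μg/mL insulin for 30 min. Lysates were assayed for phospho-Akt by ELISA.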

`CNC(=O)CCCn1cnc2ccc(-c3cnc(OC)c(NS(=O)(=O)c4ccc(F)cc4Cl)c3)cc2c1=O` [WX198] was tested, and the TGI % [1] was 62.6% and the pIC50 [2] was 8.03.
